Common to all, as to assay: NCI tumour cell line growth inhibition, 48 h
The test system of assay [1] is 786-0.
Assay [2] concerns A549.
Assay [3] deals with CCRF-CEM.
Assay [4] concerns COLO 205.
Assay [5] relates to DU-145.
The subject of assay [6] is EKVX.
For assay [7], the system named is HCC 2998.
For assay [8], the system named is IGROV-1.
Assay [9] has as its system KM12.
Assay [10] relates to MDA-N.
Assay [11] relates to MOLT-4.
Assay [12] deals with NCI-H522.
The subject of assay [13] is OVCAR-3.
The subject of assay [14] is OVCAR-4.
Assay [15] deals with RXF 393.
The subject of assay [16] is SK-MEL-28.
Assay [17] relates to SR.
For assay [18], the system named is TK-10.
The subject of assay [19] is U-251.
The subject of assay [20] is UO-31.

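Compound exposure: 48 hours, 5 concentrations, 96-well plates. Here, GI50 denotes the concentration required for 50% inhibition of growth.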 The source made the active and inactive calls. No stated cut-off is given here; in the data, active = GI50 up to about 1.1 µM and inactive = higher.

As for `Cc1occc1C(=S)Nc1ccc(Cl)c(C(=O)OC(C)C2CC2)c1` (stereo not given), the GI50 was 19.3 µM (inactive) in assay [1]; 35.2 µM (inactive) in assay [2]; 50.1 µM (inactive) in assay [3]; 20.1 µM (inactive) in assay [4]; 28.1 µM (inactive) in assay [5]; 19.1 µM (inactive) in assay [6]. In addition, the GI50 was 20.3 µM (inactive) in assay [7]; 16 µM (inactive) in assay [8]; 16.3 µM (inactive) in assay [9]; 18.6 µM (inactive) in assay [10]; 17.4 µM (inactive) in [11]; 14.4 µM (inactive) in [12]. The GI50 in assay [13] is 16.6 µM (inactive); in assay [14] it was 15.3 µM (inactive); in [15] it was 20.4 µM (inactive); in assay [16] it was 57.9 µM (inactive); in assay [17] it was 18.3 µM (inactive); in [18] it was 37.5 µM (inactive). Moreover, the GI50 in assay [19] was 23.9 µM (inactive); in [20] it was 14.7 µM (inactive).
As to `C=C1C(=O)O[C@@H]2C[C@@H](C)[C@@H]3C=CC(=O)[C@@]3(C)[C@@H](OC(=O)CC(=O)O[C@H]3[C@@H]4C(=C)C(=O)O[C@@H]4C[C@@H](C)[C@@H]4C=CC(=O)[C@]43C)[C@H]12`, the GI50 in assay [1] is 0.0199 µM (active); in [2] it was 0.431 µM (active); in assay [3], < 0.01 µM (active); in [4], < 0.0148 µM (active); in assay [5] it was 2.56 µM (inactive); in [6] it was 0.0811 µM (active). For the same compound, the GI50 in assay [7] was 0.146 µM (active); in [8] it was 0.173 µM (active); in assay [9] it was 0.0478 µM (active); in assay [10], 0.0755 µM (active); in assay [11], 0.0153 µM (active); in [12] it was < 0.01 µM (active). In addition, the GI50 was 0.033 µM (active) in assay [13]; 0.0468 µM (active) in assay [14]; < 0.0112 µM (active) in [15]; 0.0398 µM (active) in [16]; 0.0103 µM (active) in assay [17]; 0.117 µM (active) in [18]. The GI50 in assay [19] was 0.0356 µM (active); in assay [20] it was 0.137 µM (active).
`O=C(NCCN1CCCC1)c1cn2c(ccc3sc4ccccc4c(=O)c32)n1`: the GI50 is 1.41 µM (inactive) in [1]; 7.19 µM (inactive) in assay [2]; 1.22 µM (inactive) in [3]; 11.7 µM (inactive) in assay [4]; 13.2 µM (inactive) in [5]; 15.6 µM (inactive) in assay [6]. Also, the GI50 was 6.56 µM (inactive) in [7]; 11.7 µM (inactive) in assay [8]; 16.7 µM (inactive) in assay [9]; 16.2 µM (inactive) in [10]; 0.422 µM (active) in assay [11]; 10.7 µM (inactive) in assay [12]. The GI50 in [13] was 14.7 µM (inactive); in assay [14], 12.3 µM (inactive); in assay [15], 10.8 µM (inactive); in [16], 16.6 µM (inactive); in assay [17] it was 1.17 µM (inactive); in assay [18], 12.5 µM (inactive). For the same compound, the values for the GI50 in [19] and in assay [20] were 16.7 µM (inactive) and 13.3 µM (inactive), respectively.
For the compound `NS(=O)(=O)c1c(O)c2ccccc2oc1=O`, the GI50 in assay [1], in [2], in assay [3], in assay [4], in [5] and in assay [6] was > 100 µM (inactive) throughout. Also, the GI50 in assay [7], in [8], in assay [9], in assay [10], in assay [11] and in [12] was > 100 µM (inactive) throughout. Further, the GI50 in assay [13], in assay [14], in [15], in assay [16], in assay [17] and in assay [18] was > 100 µM (inactive) in each case. The GI50 in [19] and in assay [20] was > 100 µM (inactive) each time.
In the case of `COc1ccc(O[C@H](CO)C[C@@H]2COC(C)(C)O2)cc1`, the GI50 in assay [1], in assay [2], in assay [3], in assay [4], in [5] and in assay [6] was > 100 µM (inactive) throughout. Also, the GI50 in assay [7], in assay [8], in assay [9], in assay [10], in assay [11] and in assay [12] was > 100 µM (inactive) throughout. The GI50 in [13], in assay [14], in assay [15], in [16], in [17] and in assay [18] was > 100 µM (inactive) each time. Further, the GI50 in assay [19] and in [20] was > 100 µM (inactive) each time.
`COc1ccc(C[N+](C)(C)N)cc1OC`: the GI50 in [1] is > 10 µM (inactive); in assay [2], > 10 µM (inactive); in assay [3] it was > 10 µM (inactive); in assay [4] it was > 10 µM (inactive); in assay [5], > 10 µM (inactive); in [6] it was > 100 µM (inactive). In addition, the GI50 is > 10 µM (inactive) in [7]; > 100 µM (inactive) in assay [8]; > 10 µM (inactive) in [9]; > 10 µM (inactive) in assay [10]; > 10 µM (inactive) in assay [11]; > 10 µM (inactive) in [12]. Further, the GI50 in [13] was > 10 µM (inactive); in [14], > 10 µM (inactive); in assay [15], > 100 µM (inactive); in [16], > 10 µM (inactive); in assay [17], > 10 µM (inactive); in assay [18], > 10 µM (inactive). The GI50 in [19] was > 10 µM (inactive); in [20], > 100 µM (inactive).
`CN1CCN(CCCCN2c3ccccc3Sc3ccc(N=[N+]=[N-])cc32)CC1`: the GI50 was 7.76 µM (inactive) in [1]; 12.9 µM (inactive) in assay [2]; 2.6 µM (inactive) in assay [3]; 1.86 µM (inactive) in assay [4]; 12.9 µM (inactive) in assay [5]; 13.6 µM (inactive) in assay [6]. For the same compound, the GI50 in [7] is 3.74 µM (inactive); in assay [8], 7.91 µM (inactive); in assay [9], 6.22 µM (inactive); in assay [10], 2.88 µM (inactive); in assay [11], 2.41 µM (inactive); in assay [12], 5.01 µM (inactive). Further, the GI50 in assay [13] is 8.07 µM (inactive); in [14], 10.2 µM (inactive); in assay [15], 5.16 µM (inactive); in assay [16] it was 1.84 µM (inactive); in assay [17], 2.58 µM (inactive); in [18], 12.7 µM (inactive). In addition, the figures for the GI50 in assay [19] and in assay [20] were 4.95 µM (inactive) and 7.57 µM (inactive), respectively.
On to `CN(C)/C=C1\CCc2ccc([N+](=O)[O-])cc2C1=O`, for which the GI50 in assay [1] is 48.6 µM (inactive); in assay [2], > 100 µM (inactive); in assay [3], 19.8 µM (inactive); in assay [4] it was 25.5 µM (inactive); in assay [5], > 100 µM (inactive); in assay [6] it was > 100 µM (inactive). Further, the GI50 in assay [7] was 70.8 µM (inactive); in assay [8], > 100 µM (inactive); in assay [9] it was 55.8 µM (inactive); in [10] it was 19.2 µM (inactive); in assay [11], 25.1 µM (inactive); in assay [12] it was > 100 µM (inactive). For the same compound, the GI50 in assay [13] was 18.3 µM (inactive); in [14], 17.9 µM (inactive); in [15], > 100 µM (inactive); in assay [16] it was > 100 µM (inactive); in assay [17], 31 µM (inactive); in assay [18] it was > 100 µM (inactive). The GI50 is 75.7 µM (inactive) in [19] and > 100 µM (inactive) in assay [20].
`COC(=O)C[C@H](CCSC)NC(=O)C[C@H](CCSC)NC(=O)C[C@H](CCSC)NC(=O)OC(C)(C)C`: the GI50 is 33.6 µM (inactive) in assay [1]; 43.6 µM (inactive) in assay [2]; 67.1 µM (inactive) in [3]; > 100 µM (inactive) in [4]; 87.3 µM (inactive) in assay [5]; 34.8 µM (inactive) in assay [6]. Besides, the GI50 in [7] is > 100 µM (inactive); in assay [8], 56.2 µM (inactive); in [9] it was > 100 µM (inactive); in assay [10] it was 48.3 µM (inactive); in assay [11], > 100 µM (inactive); in [12], 35.2 µM (inactive). Also, the GI50 was 22.5 µM (inactive) in assay [13]; 20.3 µM (inactive) in assay [14]; 16.1 µM (inactive) in assay [15]; > 100 µM (inactive) in assay [16]; 39.6 µM (inactive) in assay [17]; 19.1 µM (inactive) in assay [18]. Further, the GI50 was 19.5 µM (inactive) in assay [19] and > 100 µM (inactive) in assay [20].
As for `CC(=N)OC1CC2CCC1(C)C2(C)C` (stereo not given), the GI50 in assay [1], in assay [2], in [3], in [4], in assay [5] and in assay [6] was > 100 µM (inactive) each time. The GI50 in assay [7], in assay [8], in [9], in assay [10], in [11] and in assay [12] was > 100 µM (inactive) in each case. Also, the GI50 in assay [13], in assay [14], in assay [15], in assay [16], in [17] and in assay [18] was > 100 µM (inactive) throughout. For the same compound, the GI50 in assay [19] and in assay [20] was > 100 µM (inactive) throughout.
